Laboratory results: PubChem BioAssay (NCI)
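The compound was tested at five concentrations on cells cultured in 96-well plates, with a 48-hour exposure period. GI50 = concentration required for 50% inhibition of growth. TGI denotes the concentration required for complete inhibition of growth.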

Columns and labels:
Assay in all cases: growth of human tumour cells (NCI), 48 h
[1] = system: RPMI-8226 leukemia
[2] = system: HOP-92 NSCLC
[3] = system: COLO 205 colon
[4] = system: SK-OV-3 ovarian
[5] = system: SNB-75 CNS
[6] = system: OVCAR-8 ovarian
[7] = system: A549 NSCLC
[8] = system: HT29 colon
[9] = system: NCI-H460 lung
[10] = system: T-47D breast

Row | Compound | GI50 [1] [µM] | TGI [1] [µM] | GI50 [2] [µM] | TGI [2] [µM] | GI50 [3] [µM] | TGI [3] [µM] | GI50 [4] [µM] | TGI [4] [µM] | GI50 [5] [µM] | TGI [5] [µM] | GI50 [6] [µM] | TGI [6] [µM] | GI50 [7] [µM] | TGI [7] [µM] | GI50 [8] [µM] | TGI [8] [µM] | GI50 [9] [µM] | TGI [9] [µM] | GI50 [10] [µM] | TGI [10] [µM]
1 | CCC[CH2][Sn]1([CH2]CCC)[O]C(c2ccccn2)S(=O)(=O)[O]1 (stereo not given) | 2.23 | 6.46 | 1.41 | 2.86 | 2.1 | 4.54 | 16.8 | 30.9 | 2.53 | 7.26 | 2.06 | 4.79 | 20 | 34.3 | 3.79 | 12.2 | 16.8 | 30.4 |  | 
2 | CCc1ccc(C2=C/C(=C/c3ccc(Cl)cc3)C(=O)N2CCc2ccc(S(N)(=O)=O)cc2)cc1 | 2.28 | 6.14 | 1.67 | 4.8 | 1.78 | 3.54 | 3.11 | 9.15 | 2.79 | 12.9 | 3.2 | 13.1 | 2.6 | 7.37 | 2.22 | 4.58 |  |  | 3.09 | 11.9
3 | CCN1C(C)=NC2C(=O)c3ccccc3C(=O)C21 (stereo not given) |  | > 100 |  |  |  | > 100 |  |  |  | > 100 |  | > 100 |  | > 100 |  | > 100 |  | > 100 |  | 
4 | COc1ccc2cc(C(=O)c3ccccc3C(=O)O)ccc2c1 |  |  |  |  |  | > 100 |  | > 100 |  | > 100 |  | > 100 |  | > 100 |  | > 100 |  | > 100 |  | 
5 | CC1(C)CC23C(=O)N(c4ccccc4)C(=Nc4ccccc4)NC2=CC(C#N)=C(C#N)C3O1 (stereo not given) |  | > 100 |  | 52.2 |  | > 100 |  |  |  | > 100 |  | > 100 |  | > 100 |  | > 100 |  | > 100 |  | 
6 | CCN1C(=O)N(CC)C2C1NN=c1s/c(=C3\C(=O)N(CCC(C)C)c4ccccc43)c(=O)n12 (stereo not given) | 1.68 | 5.77 | 1.47 | 5.83 |  |  | 2.53 | 18 | 0.802 | 2.5 |  |  |  |  |  |  |  |  |  | 
7 | O=C1c2ccccc2C(=O)N1/N=C\c1ccc(Br)cc1 |  | > 10 | > 100 | > 100 |  | > 100 |  | > 100 | > 100 | > 100 | > 100 | > 100 | > 100 | > 100 | > 100 | > 100 |  | > 10 |  | 
8 | CC1=CC(=O)C(C)(C2=NC(C)(C)CO2)c2ccccc21 (stereo not given) |  | > 100 |  | > 100 |  | > 100 |  | > 100 |  | > 100 |  | > 100 |  | > 100 |  | > 100 |  | > 100 |  | 
9 | CCCC(OCC)(OCC)OCC |  | > 100 |  | > 100 |  | > 100 |  | > 100 |  | > 100 |  | > 100 |  | > 100 |  | > 100 |  | > 100 |  | 
10 | CC(=O)CC(=O)N(CCN(C(=O)CC(C)=O)c1ccccc1)c1ccccc1 |  | > 100 |  | > 100 |  | > 100 |  | > 100 |  | > 100 |  | > 100 |  | > 100 |  |  |  | > 100 |  | 
11 | COc1cccc(/C=C(/C(=O)O)c2cc(OC)c(OC)c(OC)c2)c1 |  | > 100 |  | > 100 |  | > 100 |  |  |  | > 100 |  | > 100 |  | > 100 |  | > 100 |  | > 100 |  | 
12 | CC1(C)CCC(=O)c2c(O)ccc(O)c21 |  | > 100 |  | 76.9 |  | > 100 |  | > 100 |  | 98.3 |  | > 100 |  | > 100 |  | > 100 |  |  |  | 
13 | CSc1nc(NC2OCC(OC(C)=O)C(OC(C)=O)C2OC(C)=O)c(N=CC=Nc2c(NC3OCC(OC(C)=O)C(OC(C)=O)C3OC(C)=O)nc(SC)n(C)c2=O)c(=O)n1C (stereo not given) |  | > 100 |  | > 100 |  | > 100 |  | > 100 |  | > 100 |  | > 100 |  | > 100 |  | > 100 |  | > 100 |  | 
14 | COc1cc2[nH]c(C(=O)c3cc(OC)c(OC)c(OC)c3)c(N)c2cc1C#CCO | 1.64 | 83.6 | 0.0862 | 90.7 | 0.268 | 0.842 | 0.482 | > 100 |  |  | 0.533 | > 100 | 0.969 | > 100 | 0.353 | > 100 | 0.394 | > 100 |  | 
15 | COc1ccc2[nH]c3c4c(c5cc(C(C)(C)C)ccc5c3c2c1)C(=O)N(c1ccccc1)C4=O |  | > 100 |  |  |  | > 100 |  | > 100 |  | > 100 |  | > 100 |  | > 100 |  | > 100 |  | > 100 |  | 
16 | Cc1cc(C)c(C(=O)O)c(N)c1O |  | > 100 |  |  |  | > 100 |  | > 100 |  | > 100 |  | > 100 |  | > 100 |  | > 100 |  |  |  | 
17 | COc1cc(C(=O)C/C(CCC(=O)Nc2ccccc2[N+](=O)[O-])=N\NC(=O)C(N)=O)ccc1O |  |  |  | > 100 |  | > 100 |  | > 100 |  |  |  | > 100 |  | > 100 |  | > 100 |  | > 100 |  | 
18 | CN1CCC23c4c5ccc(O)c4OC2C(=NN=C2CCC4(O)C6Cc7ccc(O)c8c7C4(CCN6C)C2O8)CCC3(O)C1C5 (stereo not given) |  | > 100 |  | > 100 |  | > 100 |  | > 100 |  | > 100 |  | > 100 |  | > 100 |  | > 100 |  | > 100 |  | 
19 | C[C@H](c1ccc(Cl)cc1N)N1C(=O)c2cc(I)ccc2N(CCCN2CCN(C)CC2)C(=O)[C@@H]1c1ccc(Cl)cc1 | 1.7 | 3.69 |  |  |  |  | 1.81 | 3.2 |  |  |  |  | 1.3 | 2.57 | 1.82 | 3.47 | 1.32 | 2.71 |  | 
20 | OCCN1CCN(CCO)Cc2ccccc2OCCOc2ccccc2C1 |  | > 100 |  | > 100 |  | > 100 |  | > 100 |  | > 100 |  | > 100 |  | > 100 |  | > 100 |  | > 100 |  | 
21 | CC(C)(Cl)CCC1=C(Cl)C(=O)c2ccccc2C1=O | 1.78 | 4.65 |  |  | 2.07 | 4.12 | 5.48 | 17.6 | 1.69 | 6.44 | 2.03 | 5.03 | 3.2 | 11 | 15.6 | 31.5 | 3.31 | 12.4 | 1.97 | 5.52
